Results published in US20240158446A1, “CYCLIC COMPOUND HAVING SELECTIVE INHIBITORY ACTION ON KRAS OVER HRAS AND NRAS” (CHUGAI SEIYAKU KABUSHIKI KAISHA, priority 2021, published 2024).

Key:
[1] = target: GDP-bound NRAS wild-type protein (Homo sapiens, UniProt P01111); assay: Binding to NRAS by surface plasmon resonance (SPR), Single Cycle Kinetics; details: SPR, GDP-bound NRAS wild-type protein vs GDP-bound KRAS wild-type protein
[2] = target: GDP-bound KRAS wild-type protein (Homo sapiens, UniProt P01116); assay: Binding to KRAS by surface plasmon resonance (SPR), Single Cycle Kinetics; details: SPR, Single Cycle Kinetics, GDP-bound KRAS wild-type protein; read-out: KRAS KD
[3] = system: human lung cancer strain NCI-H441;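 further: cell proliferation inhibition after four days measured by CellTiter-Glo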
[4] = target: GDP-bound HRAS wild-type protein (Homo sapiens, UniProt P01112); assay: Binding to HRAS by surface plasmon resonance (SPR), Single Cycle Kinetics; details: SPR, GDP-bound HRAS wild-type protein vs GDP-bound KRAS wild-type protein
GDP-bound HRAS wild-type protein, sequence (P01112 whole entry): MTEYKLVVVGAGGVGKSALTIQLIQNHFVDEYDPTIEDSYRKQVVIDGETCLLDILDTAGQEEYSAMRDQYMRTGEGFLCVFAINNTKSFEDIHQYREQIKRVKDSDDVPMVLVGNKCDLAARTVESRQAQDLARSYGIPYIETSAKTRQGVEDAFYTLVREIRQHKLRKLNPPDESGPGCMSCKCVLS

GDP-bound KRAS wild-type protein, sequence (P01116 whole entry): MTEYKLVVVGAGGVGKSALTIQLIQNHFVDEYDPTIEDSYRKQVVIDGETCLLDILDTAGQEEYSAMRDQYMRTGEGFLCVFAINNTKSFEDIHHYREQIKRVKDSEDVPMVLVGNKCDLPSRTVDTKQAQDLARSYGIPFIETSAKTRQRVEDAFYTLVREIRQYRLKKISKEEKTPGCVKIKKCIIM
GDP-bound NRAS wild-type protein, sequence (P01111 whole entry): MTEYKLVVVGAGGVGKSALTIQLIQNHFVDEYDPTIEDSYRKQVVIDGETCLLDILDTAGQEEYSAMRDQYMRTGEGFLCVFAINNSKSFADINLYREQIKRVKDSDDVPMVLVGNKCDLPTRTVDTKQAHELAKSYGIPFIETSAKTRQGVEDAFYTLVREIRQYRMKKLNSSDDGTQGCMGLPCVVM

## CCC[C@H]1C(=O)N[C@@H]([C@@H](C)CC)C(=O)N(C)CC(=O)N(C)[C@H]2C/C=C\CCN(C2=O)[C@@H](CC2CCC(F)(F)CC2)C(=O)N(C)CC(=O)N[C@@H](CCc2cc(F)c(C(F)(F)F)c(F)c2)C(=O)N2C[C@H](OCC)C[C@H]2C(=O)NC2(CC(C)(C)C2)C(=O)N(C)[C@@H](C(CC)CC)C(=O)N(C)[C@H](C(=O)N(C)C)CC(=O)N1C [PP2489]
[1]
  NRAS/KRAS (ratio of KD value for NRAS to KD value for KRAS): A (a compound having 10 or more and less than 20 is denoted as A)
[2]
  Kd: 0.55 nM
[3]
  IC50: 30.5 nM
[4]
  HRAS/KRAS (ratio of KD value for HRAS to KD value for KRAS): A (a compound having 10 or more and less than 20 is denoted as A)

## CCCOC[C@H]1C(=O)N[C@@H]([C@@H](C)CC)C(=O)N(C)CC(=O)N(C)[C@H]2C/C=C\CCN(C2=O)[C@@H](CC2CCC(F)(F)CC2)C(=O)N(C)CC(=O)N[C@@H](CCc2cc(F)c(C(F)(F)F)c(F)c2)C(=O)N2C[C@@H](C)C[C@H]2C(=O)NC2(CC(C)(C)C2)C(=O)N(C)[C@@H](C(CC)CC)C(=O)N(C)[C@H](C(=O)N(C)C)CC(=O)N1C [PP2490]
[1]
  NRAS/KRAS (ratio of KD value for NRAS to KD value for KRAS): AA (a compound having 20 or more is denoted as AA)
[2]
  Kd: 1.7 nM
[3]
  IC50: 162 nM
[4]
  HRAS/KRAS (ratio of KD value for HRAS to KD value for KRAS): A (a compound having 10 or more and less than 20 is denoted as A)

## CCO[C@@H]1C[C@H]2C(=O)NC3(CC(C)(C)C3)C(=O)N(C)[C@@H](C(CC)CC)C(=O)N(C)[C@H](C(=O)N(C)C)CC(=O)N(C)[C@@H](C(C)C)C(=O)N[C@@H]([C@@H](C)CC)C(=O)N(C)CC(=O)N(C)[C@H]3C/C=C\CCN(C3=O)[C@@H](CC3CCC(F)(F)CC3)C(=O)N(C)CC(=O)N[C@@H](CCc3ccc(C(F)(F)F)c(Cl)c3)C(=O)N2C1 [PP2492]
[1]
  NRAS/KRAS (ratio of KD value for NRAS to KD value for KRAS): AA (a compound having 20 or more is denoted as AA)
[2]
  Kd: 2.4 nM
[3]
  IC50: 76.7 nM
[4]
  HRAS/KRAS (ratio of KD value for HRAS to KD value for KRAS): A (a compound having 10 or more and less than 20 is denoted as A)

## CCC(CC)[C@H]1C(=O)N(C)[C@H](C(=O)N(C)C)CC(=O)N(C)[C@@H](CC2CC2)C(=O)N[C@@H]([C@@H](C)CC)C(=O)N(C)CC(=O)N(C)[C@H]2C/C=C\CCN(C2=O)[C@@H](CC2CCC(F)(F)CC2)C(=O)N(C)CC(=O)N[C@@H](CCc2ccc(C(F)(F)F)c(OC)c2)C(=O)N2C[C@@H](C)C[C@H]2C(=O)NC2(CC(C)(C)C2)C(=O)N1C [PP2494]
[1]
  NRAS/KRAS (ratio of KD value for NRAS to KD value for KRAS): A (a compound having 10 or more and less than 20 is denoted as A)
[2]
  Kd: 1.8 nM
[3]
  IC50: 39.6 nM
[4]
  HRAS/KRAS (ratio of KD value for HRAS to KD value for KRAS): A (a compound having 10 or more and less than 20 is denoted as A)

## CCO[C@@H]1C[C@H]2C(=O)NC3(CC(C)(C)C3)C(=O)N(C)[C@@H](C(CC)CC)C(=O)N(C)[C@H](C(=O)N(C)C)CC(=O)N(C)[C@@H](CC3CC3)C(=O)N[C@@H]([C@@H](C)CC)C(=O)N(C)CC(=O)N(C)[C@H]3C/C=C\CCN(C3=O)[C@@H](CC3CCC(F)(F)CC3)C(=O)N(C)CC(=O)N[C@@H](CCc3ccc(C(F)(F)F)c(Cl)c3)C(=O)N2C1 [PP2495]
[1]
  NRAS/KRAS (ratio of KD value for NRAS to KD value for KRAS): A (a compound having 10 or more and less than 20 is denoted as A)
[2]
  Kd: 0.84 nM
[3]
  IC50: 17.4 nM
[4]
  HRAS/KRAS (ratio of KD value for HRAS to KD value for KRAS): A (a compound having 10 or more and less than 20 is denoted as A)

## CCC(CC)[C@H]1C(=O)N(C)[C@H](C(=O)N(C)C)CC(=O)N(C)[C@@H](C(C)C)C(=O)N[C@@H]([C@@H](C)CC)C(=O)N(C)CC(=O)N(C)[C@H]2C/C=C\CCN(C2=O)[C@@H](CC2CCC(F)(F)CC2)C(=O)N(C)CC(=O)N[C@@H](CCc2cc(F)c(C(F)(F)F)c(F)c2)C(=O)N2C[C@@H](C)C[C@H]2C(=O)NC2(CC(C)(C)C2)C(=O)N1C [PP2496]
[1]
  NRAS/KRAS (ratio of KD value for NRAS to KD value for KRAS): A (a compound having 10 or more and less than 20 is denoted as A)
[2]
  Kd: 6.2 nM
[3]
  IC50: 97.3 nM
[4]
  HRAS/KRAS (ratio of KD value for HRAS to KD value for KRAS): A (a compound having 10 or more and less than 20 is denoted as A)

## CCC[C@H]1C(=O)N[C@@H]([C@@H](C)CC)C(=O)N(C)CC(=O)N(C)[C@H]2C/C=C\CCN(C2=O)[C@@H](CC2CCC(F)(F)CC2)C(=O)N(C)CC(=O)N[C@@H](CCc2ccc(C(F)(F)F)c(OC)c2)C(=O)N2C[C@@H](C)C[C@H]2C(=O)NC2(CC(C)(C)C2)C(=O)N(C)[C@@H](C(CC)CC)C(=O)N(C)[C@H](C(=O)N(C)C)CC(=O)N1C [PP2497]
[1]
  NRAS/KRAS (ratio of KD value for NRAS to KD value for KRAS): A (a compound having 10 or more and less than 20 is denoted as A)
[2]
  Kd: 1.5 nM
[3]
  IC50: 84.8 nM
[4]
  HRAS/KRAS (ratio of KD value for HRAS to KD value for KRAS): A (a compound having 10 or more and less than 20 is denoted as A)

## CCC[C@H]1C(=O)N[C@@H]([C@@H](C)CC)C(=O)N(C)CC(=O)N(C)[C@H]2C/C=C\CCN(C2=O)[C@@H](CC2CCC(F)(F)CC2)C(=O)N(C)CC(=O)N[C@@H](CCc2ccc(C(F)(F)F)c(Cl)c2)C(=O)N2C[C@H](OCC)C[C@H]2C(=O)NC2(CC(C)(C)C2)C(=O)N(C)[C@@H](C(CC)CC)C(=O)N(C)[C@H](C(=O)N(C)C)CC(=O)N1C [PP2498]
[1]
  NRAS/KRAS (ratio of KD value for NRAS to KD value for KRAS): A (a compound having 10 or more and less than 20 is denoted as A)
[2]
  Kd: 0.67 nM
[3]
  IC50: 21.9 nM
[4]
  HRAS/KRAS (ratio of KD value for HRAS to KD value for KRAS): A (a compound having 10 or more and less than 20 is denoted as A)
